From patent publication US11951167B2, “Targeted liposomes” (GEORGETOWN UNIVERSITY, priority 2012, dated 2024)

Key:
topoisomerase I = target: T1, topoisomerase I (Homo sapiens, UniProt P11387); conditions: cited from earlier work
T1 sequence (P11387 1-765): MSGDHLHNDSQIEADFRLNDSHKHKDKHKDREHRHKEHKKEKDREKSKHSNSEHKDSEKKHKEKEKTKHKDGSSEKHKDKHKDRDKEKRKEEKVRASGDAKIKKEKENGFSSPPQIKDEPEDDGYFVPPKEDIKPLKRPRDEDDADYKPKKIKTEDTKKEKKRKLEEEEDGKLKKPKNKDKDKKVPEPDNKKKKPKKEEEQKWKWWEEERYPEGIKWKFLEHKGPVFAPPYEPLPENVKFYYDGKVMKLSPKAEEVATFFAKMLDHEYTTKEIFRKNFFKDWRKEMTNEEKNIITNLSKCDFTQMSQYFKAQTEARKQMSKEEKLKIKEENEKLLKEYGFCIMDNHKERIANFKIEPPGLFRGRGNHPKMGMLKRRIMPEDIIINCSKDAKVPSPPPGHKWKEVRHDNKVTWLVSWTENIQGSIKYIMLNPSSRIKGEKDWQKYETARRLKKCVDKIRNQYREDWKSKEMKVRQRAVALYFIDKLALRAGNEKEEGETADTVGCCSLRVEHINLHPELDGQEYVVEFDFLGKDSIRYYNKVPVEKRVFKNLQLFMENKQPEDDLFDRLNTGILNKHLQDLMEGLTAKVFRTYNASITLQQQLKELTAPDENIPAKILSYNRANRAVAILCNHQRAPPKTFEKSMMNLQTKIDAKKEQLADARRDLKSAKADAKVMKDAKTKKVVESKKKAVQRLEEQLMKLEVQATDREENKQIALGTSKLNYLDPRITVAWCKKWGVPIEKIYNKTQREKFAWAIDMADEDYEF

KMS-11 cells [1] = assay: Cell viability, MEL or scL-MEL combined with scL-p53; format: cell-based; conditions: Homo sapiens, scL-p53 DNA dose 0.2 ug/4×10^5 cells in the combination
Procedure: Cells (4×10^5 per tube) were transfected with different scL/MEL complexes containing increasing doses of MEL. The scL-p53 was prepared as previously described (U.S. Pat. No. 7,780,822). The DNA dose used for all transfections was 0.2 ug/4×10^5 cells. […] The IC20 was used to allow detection of an additive or synergistic effect of the two treatments. The KMS-11 cells were transfect with Free (unencapsulated) MEL alone, scL-MEL alone, or the combination of Free (unencapsulated) or scL encapsulated MEL plus scL-p53 (FIG. 37).

KMS-11 cells [2] = assay: Cell viability by Trypan Blue counting, MEL formulations; format: cell-based; conditions: Homo sapiens, KMS-11, 48 h
Procedure: The size of the scL-MEL nanocomplex was 45 and 57 nm, respectively.
For these in vitro cell survival studies, the human multiple myeloma cell line KMS-11 was used. These are non-adherent cells and grow in suspension. 4×10^5 cells in 2.6 ml of serum free media were incubated in a sterile 50 ml centrifuge tube with 400 ul of the scL-MEL (at either ratio) or unencapsulated MEL for one hour. Following this incubation, the medium was supplemented with fetal bovine serum to a final concentration of 10% (0.3 ml/tube). After incubation for an additional 47 h, cell viability was determined by Trypan Blue counting of the cells. To accomplish this, one part trypan blue solution is mixed with 1 part cell suspension (1:1 dilution) in a 2 mL eppendorf tube (e.g. 200 μL trypan blue is mixed with 200 μL cell suspension). Using a hemacytometer and a microscope the number of viable cells (unstained) and dead cells (stained) are counted. The average number of cells per 0.1 mm^3 is calculated and the number of cells per mL determined. The percent of viable cells is calculated as follows: Viable Cells %=(Number of viable cells/Number of Cells)*100
This complex was subsequently lyophilized and the samples stored in a desiccator at 2-8° C. After one week of storage the lyophilized scL-Mel complex was reconstituted with endotoxin free water and used to transfect KMS-11 cells as described above. […]

HT-29 cells = assay: XTT cell viability, IH formulations; format: cell-based; conditions: Homo sapiens, 24 h
Procedure: (§1) After 24 hours, the media was replaced with serum-free medium, overlaid with 100 μL of increasing concentrations of either scL-IH nanocomplex, prepared as described above in Example 26, unliganded nanocomplex (L-IH), free IH or LipA only in serum-free medium. The cells were, incubated for 5 hours and then supplemented with FBS. […] The IC50 was interpolated from the graph of the log of drug concentration versus the fraction of surviving cells.

HT-29 xenograft tumors = assay: Anti-tumor efficacy in subcutaneous colon xenografts; format: in vivo, athymic nude mice
Procedure: In our initial in vivo experiment, we assessed the anti-tumor efficacy of various molar ratios of liposome to IH. Tumors of human colon tumor cell line HT-29 were induced in female athymic nude mice (5-10 animals/group) by the subcutaneous injection of 3.12×10^5 cells/site/mouse suspended in Matrigel® collagen basement solution. When the tumors reached ˜100 mm^3 treatment was initiated. […] Groups of animals were also treated with Free IH, scL without IH, the nanocomplex without the targeting moiety (Lip-IH), as well as a group of untreated mice. The mice were IV injected twice weekly to a total of 15 injections. […] Thus, in the remainder of the studies the optimal ratio of 1:1 (Liposome:IH) was used in preparation of the scL-IH nanocomplex. […] Here also the mice received a total of 15 intravenous injections.

Hep G2 cells = assay: XTT cell viability, IH formulations; format: cell-based, human
Procedure: as §1

PANC-1 cells = assay: XTT cell viability, IH formulations; format: cell-based, human
Procedure: as §1

CCc1c2c(nc3ccc(O)cc13)-c1cc3c(c(=O)n1C2)COC(=O)[C@]3(O)CC [SN-38, 7-ethyl-10-hydroxy-camptothecin]
potency relative to parent compound irinotecan (topoisomerase I): One thousand-fold more potent

N[C@@H](Cc1ccc(N(CCCl)CCCl)cc1)C(=O)O [MEL, melphalan]
IC50 (KMS-11 cells [1]): 10.9 µM | IC50 (KMS-11 cells [2]): 17.6 µM

CCc1c2c(nc3ccc(OC(=O)N4CCC(N5CCCCC5)CC4)cc13)-c1cc3c(c(=O)n1C2)COC(=O)[C@]3(O)CC [IH, Irinotecan]
IC50 (HT-29 cells): > 10 µM | tumor growth (HT-29 xenograft tumors; first experiment, IH 10 mg/kg i.v. twice weekly, 15 injections, Liposome:IH 1:1 for the complex): minimal effect on tumor growth | tumor growth (HT-29 xenograft tumors; second experiment (fresh vs lyophilized), IH 10 mg/kg, Liposome:IH 1:1, 15 injections): only minimal effect | cell kill at the low doses tested (Hep G2 cells): no effect | cell kill at the low doses tested (PANC-1 cells): no effect
